Experimental data: publication PMC2364952, “The Anti-Inflammatory Activity of Boron Derivatives in Rodents” (Metal-Based Drugs, 1995)

Columns and labels:
[1] = target: prostaglandin cyclooxygenase; experiment: Prostaglandin cyclooxygenase activity, macrophages; format: cell-based, mouse (J774 macrophages); details: Table 7
5'-lipoxygenase [2] = target: T1, 5'-lipoxygenase (Homo sapiens, UniProt P09917); experiment: 5'-Lipoxygenase activity, human leukocytes; format: cell-based; details: Table 7
T1 construct: endogenous in cells; host or cells: RMPI 1788 human leukocytes
T1 sequence (P09917 1-674): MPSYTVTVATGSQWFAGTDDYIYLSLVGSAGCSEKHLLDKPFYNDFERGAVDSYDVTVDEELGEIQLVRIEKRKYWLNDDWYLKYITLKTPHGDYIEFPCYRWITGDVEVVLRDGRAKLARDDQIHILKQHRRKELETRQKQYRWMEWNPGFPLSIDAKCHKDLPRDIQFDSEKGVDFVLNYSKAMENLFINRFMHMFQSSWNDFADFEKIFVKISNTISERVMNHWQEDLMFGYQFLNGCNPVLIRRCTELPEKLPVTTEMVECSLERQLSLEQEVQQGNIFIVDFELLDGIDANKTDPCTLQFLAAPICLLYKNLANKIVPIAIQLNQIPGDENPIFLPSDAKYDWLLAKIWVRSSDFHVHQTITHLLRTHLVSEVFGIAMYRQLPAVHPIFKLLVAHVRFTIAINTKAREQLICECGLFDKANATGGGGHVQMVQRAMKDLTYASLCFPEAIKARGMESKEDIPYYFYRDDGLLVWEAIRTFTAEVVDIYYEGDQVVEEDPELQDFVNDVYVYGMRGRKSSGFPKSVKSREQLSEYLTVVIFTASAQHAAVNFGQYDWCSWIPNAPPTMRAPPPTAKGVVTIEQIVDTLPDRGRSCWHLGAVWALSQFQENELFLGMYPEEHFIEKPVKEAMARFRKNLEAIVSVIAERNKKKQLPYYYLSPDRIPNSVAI

[3] = system: adjuvant (M. butyricum) arthritis; experiment: Chronic adjuvant arthritic screen; format: in vivo; details: rats; for Rat Chronic Arthritis: 8 mg/kg/day I.P., Day 3 to Day 21, Table 2
elastase [4] = experiment: Elastase activity, UMR-106 osteosarcoma cells; format: cell-based; details: Table 6; read-out: IC50 Elastase, Rat UMR-106 Bone Osteosarcoma
acid phosphatase = experiment: Acid phosphatase activity, mouse macrophages; format: cell-based, mouse (J774 macrophages); details: Table 3; read-out: IC50 Acid Phosphatase, Mouse Macrophage
[5] = system: carrageenan-induced pleural fluid; experiment: Anti-pleurisy screen; format: in vivo, Sprague Dawley male rats; details: for pleurisy edema in rats: 8 mg/kg; for Rat Pleurisy: rats, 8 mg/kg I.P., 1 h before and 3 h after carrageenan, Table 2;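 for Rat Pleurisy: Pleural fluid volume as percent of control rats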
neutral cathepsin = experiment: Cathepsin activity, UMR-106 osteosarcoma cells; format: cell-based; details: Table 6; read-out: IC50 Neutral Cathepsin, Rat UMR-106 Bone Osteosarcoma
aryl sulphatase = experiment: Aryl sulfatase activity, mouse macrophages; format: cell-based, mouse (J774 macrophages); details: Table 3; read-out: IC50 Aryl Sulfatase, Mouse Macrophage
cathepsin = experiment: Cathepsin activity, mouse macrophages; format: cell-based, mouse (J774 macrophages); details: Table 3; read-out: IC50 Cathepsin, Mouse Macrophage
elastase [6] = experiment: Elastase activity, mouse macrophages; format: cell-based, mouse (J774 macrophages); details: Table 5; read-out: IC50 Elastase, Mouse Macrophage
[7] = system: tail flick response to heat; experiment: Hot plate tail flick screen; format: in vivo, CF1 male mice; details: for Mice Tail Flick: 8 mg/kg I.P., hot plate, Table 2; for tail flick assay time: mice, 8 mg/kg
trypsin [8] = experiment: Trypsin activity, UMR-106 osteosarcoma cells; format: cell-based; details: Table 6; read-out: IC50 Trypsin, Rat UMR-106 Bone Osteosarcoma
[9] = system: prostaglandin cyclooxygenase; experiment: Prostaglandin cyclooxygenase activity, Be Sal cells; format: cell-based, human (Be Sal osteofibrolytic cells); details: Table 7; read-out: IC50 Prostaglandin Cyclooxygenase, Be Sal Osteofibro
[10] = system: acetic acid induced stretch reflex; experiment: Local analgesic screen (acetic acid writhing); format: in vivo, CF1 mice; details: for Mice Writhing Reflex: 8 mg/kg I.P., Table 2; for reduction of the reflex action: mice, acetic acid induced local pain, 8 mg/kg
[11] = target: T2, prostaglandin cyclooxygenase (Bos taurus, UniProt O62664); experiment: Prostaglandin synthetase from bovine seminal vesicles; format: biochemical; details: Table 7; read-out: IC50 Prostaglandin Cyclooxygenase, Beef Seminal Vesicle
T2 construct: purified commercial prostaglandin synthetase from bovine seminal vesicles (Miles Research Products); purchased Miles Research Products; host or cells: bovine seminal vesicles (tissue preparation)
T2 sequence (O62664 25-600): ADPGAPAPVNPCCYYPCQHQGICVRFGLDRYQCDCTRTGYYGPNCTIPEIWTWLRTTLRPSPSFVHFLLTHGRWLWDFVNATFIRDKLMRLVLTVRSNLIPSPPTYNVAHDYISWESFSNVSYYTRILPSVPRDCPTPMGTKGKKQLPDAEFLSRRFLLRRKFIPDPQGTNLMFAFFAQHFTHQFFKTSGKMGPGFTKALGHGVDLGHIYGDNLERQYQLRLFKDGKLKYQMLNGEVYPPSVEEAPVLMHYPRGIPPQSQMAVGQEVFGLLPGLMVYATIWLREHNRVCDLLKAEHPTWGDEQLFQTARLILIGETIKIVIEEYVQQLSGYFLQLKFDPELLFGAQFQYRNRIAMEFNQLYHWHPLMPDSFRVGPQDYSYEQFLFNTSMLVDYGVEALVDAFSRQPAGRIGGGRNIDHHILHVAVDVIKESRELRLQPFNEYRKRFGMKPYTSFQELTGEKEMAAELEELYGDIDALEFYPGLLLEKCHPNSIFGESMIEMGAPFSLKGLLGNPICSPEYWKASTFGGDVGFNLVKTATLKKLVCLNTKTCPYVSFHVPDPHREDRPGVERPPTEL

trypsin [12] = experiment: Trypsin proteolytic activity, mouse macrophages; format: cell-based, mouse (J774 macrophages); details: Table 5; read-out: IC50 Trypsin, Mouse Macrophage
5'-lipoxygenase [13] = target: T3, 5'-lipoxygenase (Mus musculus, UniProt P48999); experiment: 5'-Lipoxygenase activity, mouse macrophages; format: cell-based; details: Table 7; read-out: IC50 5'-Lipoxygenase, Mouse Macrophage
T3 construct: endogenous in cells; host or cells: mouse macrophages (J774A as maintained above)
T3 sequence (P48999 1-674): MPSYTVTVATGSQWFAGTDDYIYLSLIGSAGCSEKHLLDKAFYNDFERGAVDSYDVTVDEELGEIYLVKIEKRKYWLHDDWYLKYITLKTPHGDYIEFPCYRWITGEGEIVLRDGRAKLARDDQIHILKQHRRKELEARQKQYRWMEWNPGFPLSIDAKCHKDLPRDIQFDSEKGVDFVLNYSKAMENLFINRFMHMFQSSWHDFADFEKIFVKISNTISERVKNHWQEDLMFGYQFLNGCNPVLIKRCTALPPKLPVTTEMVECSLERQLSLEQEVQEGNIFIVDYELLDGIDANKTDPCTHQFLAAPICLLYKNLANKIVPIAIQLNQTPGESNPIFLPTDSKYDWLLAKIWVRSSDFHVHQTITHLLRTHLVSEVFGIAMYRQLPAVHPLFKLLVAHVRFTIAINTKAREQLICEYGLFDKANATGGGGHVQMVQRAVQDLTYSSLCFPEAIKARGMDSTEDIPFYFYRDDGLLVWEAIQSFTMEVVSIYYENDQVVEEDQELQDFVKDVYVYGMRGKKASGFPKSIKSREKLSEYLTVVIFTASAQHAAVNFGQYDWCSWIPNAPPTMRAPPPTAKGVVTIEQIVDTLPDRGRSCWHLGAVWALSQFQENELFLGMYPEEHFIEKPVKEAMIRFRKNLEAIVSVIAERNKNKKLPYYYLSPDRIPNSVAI

[14] = system: carrageenan-induced inflammation of paw; experiment: Carrageenan-induced paw edema, rats; format: in vivo, Sprague Dawley male rats; details: for reduction in induced edema in rats: 8 mg/kg x 2; for Rat Inflammatory: 8 mg/kg x 2, I.P., Table 2;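 for Rat Inflammatory: paw weight increase as percent of control rats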
[15] = system: carrageenan-induced inflammation of hind foot; experiment: Carrageenan-induced foot edema, mice; format: in vivo, CF1 male mice; details: mice, 8 mg/kg x 2

SMILES	IC50 [1]	IC50 (5'-lipoxygenase [2])	Rat Chronic Arthritis [3]	IC50 (elastase [4])	IC50 (acid phosphatase)	pleurisy edema in rats [5]	Rat Pleurisy [5]	IC50 (neutral cathepsin)	IC50 (aryl sulphatase)	IC50 (cathepsin)	IC50 (elastase [6])	Mice Tail Flick [7]	IC50 (trypsin [8])	IC50 [9]	Mice Writhing Reflex [10]	reduction of the reflex action [10]	IC50 [11]	IC50 (trypsin [12])	IC50 (5'-lipoxygenase [13])	Rat Inflammatory [14]	further results
CCCCCCCCCCCCCCCC[N+](C)(C)[BH2-]C(=O)O [Compound 8]	2.55 µM	1.53 µM	40 % of control	9.58 µM	0.94 µM	reduced significantly	19 % of control	6.59 µM	9.71 µM	7.18 µM	1.8 µM	167 % of control	6.56 µM	6.77 µM	16 % of control	80%	2.43 µM	1.26 µM	8.76 µM	59 % of control	activity in chronic arthritis screen ([3]; 8 mg/kg/day): significantly active; tail flick assay time [7]: increased; reduction in induced edema in rats [14]: at least 40%
O=C(O)[BH2-][P+](c1ccccc1)(c1ccccc1)c1ccccc1 [Compound 12]	3.53 µM	4.77 µM	49 % of control	8.86 µM	1.08 µM	reduced significantly	28 % of control	5.81 µM	8.58 µM	5.52 µM	3.04 µM	197 % of control	5.67 µM	5.49 µM	19 % of control	80%	7.6 µM	1.77 µM	9.8 µM	61 % of control	activity in chronic arthritis screen ([3]; 8 mg/kg/day): significantly active; tail flick assay time [7]: increased
COC(=O)[BH2-][NH+](C)C [Compound 15]	2.81 µM	5.37 µM		9.74 µM	1.04 µM		86 % of control	6.1 µM	7.41 µM	6.71 µM	2.14 µM	147 % of control	6.57 µM	4.24 µM	12 % of control	80%	2.86 µM	2.78 µM	6.61 µM	59 % of control	anti-inflammatory activity in mouse edema screen [15]: less active; tail flick assay time [7]: increased; reduction in induced edema in rats [14]: at least 40%
C[N+](C)(C)[BH2-]C#N [Compound 34]	5.88 µM	6.43 µM	4 % of control	8.99 µM	1.05 µM	reduced significantly	65 % of control	5.46 µM	9.29 µM	6.34 µM	1.35 µM		2.62 µM	4.26 µM	18 % of control	80%	5.9 µM	1.41 µM	8.07 µM	65 % of control	reduction of pannus ([3]; 8 mg/kg/day): greater than 75%
